38 compounds from ChEMBL document CHEMBL4616657, “Aromatic Esters of the Crinane Amaryllidaceae Alkaloid Ambelline as Selective Inhibitors of Butyrylcholinesterase” (J Nat Prod, 2020) can be followed below.

Data set [1] has as its target T1, Cholinesterase (Homo sapiens, UniProt P06276). The experiment in a line: Inhibition of human BuChE using butyrylthiocholine iodide as substrate measured for 1 min by spectrophotometric based Ellman's method.
The target in data set [2] is T2, Acetylcholinesterase (Homo sapiens, UniProt P22303). In words: Inhibition of human AChE using acetylthiocholine iodide as substrate measured for 1 min by spectrophotometric based Ellman's method. A general note: Ellman's reagent forms a yellow product with free thiols.
Data set [3] in a line: Effective permeability of the compound at pH 7.4 at 100 uM measured after 3 to 6 hrs by PAMPA assay. The data set is classed as ADME. As to conditions: read-out: Peff.
Data set [4] has as its target T2, Acetylcholinesterase. In words: Inhibition of human AChE using acetylthiocholine iodide as substrate at 100 uM measured for 1 min by spectrophotometric based Ellman's method relative to control.
Data set [5] deals with T1, Cholinesterase. The experiment in a line: Inhibition of human BuChE using butyrylthiocholine iodide as substrate at 100 uM measured for 1 min by spectrophotometric based Ellman's method relative to control.
The species entered for the next data set is Homo sapiens. In words: Selectivity index, ratio of IC50 for inhibition of human AChE using acetylthiocholine iodide as substrate to inhibition of human BuChE using butyrylthiocholine iodide as substrate.
Data set [6] deals with Cholinesterase (Equus caballus, UniProt P81908). In words: Inhibition of horse serum BuChE using butyrylthiocholine chloride as substrate by spectrophotometric based Ellman's method.

A word on the IC50: it is the concentration that gives 50% inhibition. What is called inhibition is the drop in the measured response relative to a control, in per cent. Read a low inhibition as little suppression.

T2 sequence (P22303 whole entry): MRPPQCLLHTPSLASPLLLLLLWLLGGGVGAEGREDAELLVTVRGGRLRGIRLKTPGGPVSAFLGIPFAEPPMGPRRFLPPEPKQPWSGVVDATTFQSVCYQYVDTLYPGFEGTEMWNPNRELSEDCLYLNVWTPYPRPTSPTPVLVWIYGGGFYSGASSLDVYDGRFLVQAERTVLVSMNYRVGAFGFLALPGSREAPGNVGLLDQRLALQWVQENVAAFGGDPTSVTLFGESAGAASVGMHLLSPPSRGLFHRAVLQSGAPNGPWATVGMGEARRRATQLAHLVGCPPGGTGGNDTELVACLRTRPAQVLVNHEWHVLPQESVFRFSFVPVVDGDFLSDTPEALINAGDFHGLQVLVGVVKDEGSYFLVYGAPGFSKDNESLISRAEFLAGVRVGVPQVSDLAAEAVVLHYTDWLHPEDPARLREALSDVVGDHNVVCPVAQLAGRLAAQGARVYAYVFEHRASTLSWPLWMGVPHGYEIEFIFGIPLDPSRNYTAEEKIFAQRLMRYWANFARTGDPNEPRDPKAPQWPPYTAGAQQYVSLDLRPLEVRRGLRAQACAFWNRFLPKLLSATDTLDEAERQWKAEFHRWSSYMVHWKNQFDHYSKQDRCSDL
T1 sequence (P06276 whole entry): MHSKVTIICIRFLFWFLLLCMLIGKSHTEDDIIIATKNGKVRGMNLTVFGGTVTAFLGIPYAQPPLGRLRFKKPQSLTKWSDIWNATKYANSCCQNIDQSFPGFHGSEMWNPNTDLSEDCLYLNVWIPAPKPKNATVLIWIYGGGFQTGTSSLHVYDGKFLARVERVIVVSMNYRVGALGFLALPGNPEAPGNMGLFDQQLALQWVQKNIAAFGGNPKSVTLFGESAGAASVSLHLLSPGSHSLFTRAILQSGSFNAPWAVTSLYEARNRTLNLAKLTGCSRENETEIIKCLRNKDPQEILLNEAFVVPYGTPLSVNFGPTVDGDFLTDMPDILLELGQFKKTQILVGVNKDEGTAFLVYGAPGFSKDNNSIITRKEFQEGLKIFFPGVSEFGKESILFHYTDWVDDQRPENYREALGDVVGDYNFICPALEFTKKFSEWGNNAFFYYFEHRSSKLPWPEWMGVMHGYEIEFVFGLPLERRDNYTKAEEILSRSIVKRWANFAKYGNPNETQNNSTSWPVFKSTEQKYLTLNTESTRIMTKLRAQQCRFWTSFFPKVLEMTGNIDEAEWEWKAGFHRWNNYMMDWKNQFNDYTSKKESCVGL
Cholinesterase (Equus caballus, UniProt P81908), sequence (P81908 whole entry): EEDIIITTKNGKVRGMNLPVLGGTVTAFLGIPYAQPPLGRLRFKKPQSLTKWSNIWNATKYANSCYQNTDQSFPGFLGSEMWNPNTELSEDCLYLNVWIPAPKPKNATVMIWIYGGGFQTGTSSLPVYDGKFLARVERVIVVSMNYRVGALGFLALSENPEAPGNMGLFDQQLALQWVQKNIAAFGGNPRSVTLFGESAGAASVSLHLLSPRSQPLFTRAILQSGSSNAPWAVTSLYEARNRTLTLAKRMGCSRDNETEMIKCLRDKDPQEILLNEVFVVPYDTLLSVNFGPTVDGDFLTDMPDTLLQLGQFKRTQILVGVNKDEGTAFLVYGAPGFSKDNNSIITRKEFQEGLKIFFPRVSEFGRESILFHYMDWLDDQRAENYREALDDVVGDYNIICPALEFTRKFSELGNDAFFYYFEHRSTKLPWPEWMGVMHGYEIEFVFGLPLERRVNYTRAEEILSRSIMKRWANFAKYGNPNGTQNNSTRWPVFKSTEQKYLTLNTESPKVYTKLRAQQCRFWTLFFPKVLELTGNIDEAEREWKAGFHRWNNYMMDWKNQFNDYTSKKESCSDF

Regarding `COc1c2c(cc3c1OCO3)[C@]13C=C[C@H](OC)C[C@@H]1N(C2)C[C@H]3OC(=O)c1ccc(C)cc1`, the IC50 against Cholinesterase [1] was 28 µM; against Acetylcholinesterase [2], more than 100 µM.
Regarding `COc1c2c(cc3c1OCO3)[C@]13C=C[C@H](OC)C[C@@H]1N(C2)C[C@H]3OC(=O)c1ccco1`, the IC50 against Cholinesterase [1] and on Acetylcholinesterase [2] was more than 100 µM throughout.
For the compound `COc1c2c(cc3c1OCO3)[C@]13C=C[C@H](OC)C[C@@H]1N(C2)C[C@H]3OC(=O)c1cccc(C)c1`, the IC50 was 0.86 µM at Cholinesterase [1] and more than 100 µM on Acetylcholinesterase [2]. Moreover, the Papp at 100 µM in data set [3] turned out to be 8 ×10⁻⁶ cm/s.
For the compound `COc1ccc(C(=O)O[C@@H]2C[N@@]3Cc4c(cc5c(c4OC)OCO5)[C@@]24C=C[C@H](OC)C[C@H]34)cc1`, the IC50 at Cholinesterase [1] and on Acetylcholinesterase [2] was more than 100 µM each time. Moreover, the inhibition on Acetylcholinesterase [4] was found to be 26%; against Cholinesterase [5] it was 32%.
On to `COc1c2c(cc3c1OCO3)[C@]13C=C[C@H](OC)C[C@@H]1[N@](C2)C[C@H]3OC(=O)c1cccc([N+](=O)[O-])c1`, for which the results for the inhibition against Acetylcholinesterase [4] and at Cholinesterase [5] were 58% and 53%, respectively. Moreover, the Ratio IC50 in the data set filed under Homo sapiens is 0.6.
For the compound `COc1c2c(cc3c1OCO3)[C@]13C=C[C@H](OC)C[C@@H]1N(C2)C[C@H]3OC(=O)c1ccoc1`, the IC50 against Cholinesterase [1] is 32 µM; against Acetylcholinesterase [2] it was more than 100 µM.
Regarding `COc1c2c(cc3c1OCO3)[C@]13C=C[C@H](OC)C[C@@H]1[N@](C2)C[C@H]3OC(=O)c1ccoc1`, the figures for the inhibition on Acetylcholinesterase [4] and against Cholinesterase [5] were 12% and 61%, respectively. Besides, in the data set filed under Homo sapiens, the Ratio IC50 was determined as 1.9.
Take `COc1c2c(cc3c1OCO3)[C@]13C=C[C@H](OC)C[C@@H]1N(C2)C[C@H]3OC(=O)c1cccc2ccccc12`: the IC50 is 0.1 µM against Cholinesterase [1] and more than 100 µM at Acetylcholinesterase [2]. The Papp at 100 µM in data set [3] turned out to be 9 ×10⁻⁶ cm/s.
With `COc1c2c(cc3c1OCO3)[C@]13C=C[C@H](OC)C[C@@H]1[N@](C2)C[C@H]3OC(=O)c1ccccc1`, the inhibition was found to be 25% on Acetylcholinesterase [4] and 97% on Cholinesterase [5]. Also, the Ratio IC50 in the data set filed under Homo sapiens was more than 26.
In the case of `COc1c2c(cc3c1OCO3)[C@]13C=C[C@H](OC)C[C@@H]1N(C2)C[C@H]3OC(=O)c1ccccc1`, the IC50 was 3.8 µM against Cholinesterase [1] and more than 100 µM against Acetylcholinesterase [2]. Besides, the Papp at 100 µM in data set [3] stood at 12 ×10⁻⁶ cm/s.
Regarding `COc1c2c(cc3c1OCO3)[C@]13C=C[C@H](OC)C[C@@H]1N(C2)C[C@H]3OC(=O)c1ccccc1[N+](=O)[O-]`, the IC50 against Cholinesterase [1] was 2.3 µM; against Acetylcholinesterase [2] it was 54 µM. In data set [3], the Papp at 100 µM turned out to be 12 ×10⁻⁶ cm/s.
On to `COc1ccccc1C(=O)O[C@@H]1C[N@@]2Cc3c(cc4c(c3OC)OCO4)[C@@]13C=C[C@H](OC)C[C@H]23`, for which the inhibition against Acetylcholinesterase [4] worked out at 31%; against Cholinesterase [5], 99%. For the same compound, the Ratio IC50 in the data set listed under Homo sapiens was more than 235.
Take `COc1c2c(cc3c1OCO3)[C@]13C=C[C@H](OC)C[C@@H]1[N@](C2)C[C@H]3OC(=O)c1ccccc1C`: the IC50 against Cholinesterase [1] turned out to be 0.28 µM; on Acetylcholinesterase [2], 55 µM. In data set [3], the Papp at 100 µM turned out to be 19 ×10⁻⁶ cm/s. Further, the inhibition amounted to 51% against Acetylcholinesterase [4] and 99% against Cholinesterase [5]. Further, the Ratio IC50 in the data set listed under Homo sapiens was found to be 195.
With `COc1c2c(cc3c1OCO3)[C@]13C=C[C@H](OC)C[C@@H]1[N@](C2)C[C@H]3OC(=O)c1ccc([N+](=O)[O-])cc1`, the IC50 against Cholinesterase [1] and at Acetylcholinesterase [2] was more than 100 µM in each case. Moreover, the inhibition against Acetylcholinesterase [4] was 31%; at Cholinesterase [5], 37%.
With `COc1ccc(C(=O)O[C@@H]2C[N@@]3Cc4c(cc5c(c4OC)OCO5)[C@@]24C=C[C@H](OC)C[C@H]34)cc1OC`, the inhibition against Acetylcholinesterase [4] was found to be 15%; against Cholinesterase [5] it was 33%.
Take `CCC(=O)O[C@@H]1C[N@@]2Cc3c(cc4c(c3OC)OCO4)[C@@]13C=C[C@H](OC)C[C@H]23`: the IC50 on Cholinesterase [1] and on Acetylcholinesterase [2] was more than 100 µM each time. Further, the inhibition at Acetylcholinesterase [4] came out at 15%; against Cholinesterase [5] it was 16%.
As to `COc1c2c(cc3c1OCO3)[C@]13C=C[C@H](OC)C[C@@H]1N(C2)C[C@H]3OC(C)=O`, the IC50 against Cholinesterase [1] and on Acetylcholinesterase [2] was more than 100 µM throughout.
Regarding `COc1cccc(C(=O)O[C@@H]2C[N@@]3Cc4c(cc5c(c4OC)OCO5)[C@@]24C=C[C@H](OC)C[C@H]34)c1`, the inhibition against Acetylcholinesterase [4] is 25%; on Cholinesterase [5], 91%. In addition, the Ratio IC50 in the data set listed under Homo sapiens was more than 16.
Take `COc1ccc(C(=O)O[C@@H]2CN3Cc4c(cc5c(c4OC)OCO5)[C@@]24C=C[C@H](OC)C[C@H]34)cc1OC`: the IC50 against Cholinesterase [1] and at Acetylcholinesterase [2] was more than 100 µM each time.
Turning to `COc1cccc(C(=O)O[C@@H]2CN3Cc4c(cc5c(c4OC)OCO5)[C@@]24C=C[C@H](OC)C[C@H]34)c1`, the IC50 was 6 µM on Cholinesterase [1] and more than 100 µM against Acetylcholinesterase [2].
Turning to `COc1c2c(cc3c1OCO3)[C@]13C=C[C@H](OC)C[C@@H]1[N@](C2)C[C@H]3OC(=O)C(C)C`, the inhibition is 3% against Acetylcholinesterase [4] and 12% against Cholinesterase [5].
Regarding `CO[C@@H]1C=C[C@@]23c4cc5c(cc4CN(C[C@@H]2O)[C@H]3C1)OCO5` [(+)-HAEMANTHAMINE], the IC50 at Cholinesterase [1] and at Acetylcholinesterase [2] was more than 100 µM throughout. The inhibition at Acetylcholinesterase [4] was 6%; at Cholinesterase [5] it was 13%.
Turning to `COc1c2c(cc3c1OCO3)[C@]13C=C[C@H](OC)C[C@@H]1N(C2)C[C@H]3OC(=O)c1cccc([N+](=O)[O-])c1`, the IC50 against Cholinesterase [1] was found to be 81 µM; against Acetylcholinesterase [2] it was 48 µM.
For the compound `COc1c2c(cc3c1OCO3)[C@]13C=C[C@H](OC)C[C@@H]1[N@](C2)C[C@H]3OC(=O)c1ccc2ccccc2c1`, the inhibition was 29% against Acetylcholinesterase [4] and 77% against Cholinesterase [5]. For the same compound, the Ratio IC50 in the data set filed under Homo sapiens worked out at 5.2.
Taken in the same sequence, the figures for `COc1c2c(cc3c1OCO3)[C@]13C=C[C@H](OC)C[C@@H]1[N@](C2)C[C@H]3OC(=O)c1cccc2ccccc12` were 21%, 96% and more than 1000.
Turning to `COc1c2c(cc3c1OCO3)[C@]13C=C[C@H](OC)C[C@@H]1N(C2)C[C@H]3OC(=O)C(C)C`, the IC50 against Cholinesterase [1] and against Acetylcholinesterase [2] was more than 100 µM in each case.
With `COc1c2c(cc3c1OCO3)[C@]13C=C[C@H](OC)C[C@@H]1[N@](C2)C[C@H]3OC(=O)c1ccco1`, the inhibition came out at 12% at Acetylcholinesterase [4] and 49% on Cholinesterase [5].
Regarding `COc1c2c(cc3c1OCO3)[C@]13C=C[C@H](OC)C[C@@H]1[N@](C2)C[C@H]3OC(=O)c1cccc(C)c1`, the figures for the inhibition against Acetylcholinesterase [4] and on Cholinesterase [5] were 41% and 98%, respectively. In the data set filed under Homo sapiens, the Ratio IC50 is more than 116.
The compound `C[C@@H]([C@H]1CC[C@@]2(C)[C@@H]3CC[C@@H]4C(=CC3=CC[C@]12C)C=C[C@H](NC(=O)c1ccccc1)C4(C)C)N(C)C` yielded an IC50 on Cholinesterase [6] of 1.7 µM.
With `COc1ccccc1C(=O)O[C@@H]1CN2Cc3c(cc4c(c3OC)OCO4)[C@@]13C=C[C@H](OC)C[C@H]23`, the values for the IC50 against Cholinesterase [1] and at Acetylcholinesterase [2] were 0.43 µM and more than 100 µM, respectively. Moreover, in data set [3], the Papp at 100 µM worked out at 12 ×10⁻⁶ cm/s.
As for `COc1c2c(cc3c1OCO3)[C@]13C=C[C@H](OC)C[C@@H]1[N@](C2)C[C@H]3OC(=O)c1ccc(C)cc1`, the inhibition against Acetylcholinesterase [4] was found to be 28%; at Cholinesterase [5] it was 68%. Moreover, the Ratio IC50 in the data set listed under Homo sapiens is more than 4.
Regarding `COc1c2c(cc3c1OCO3)[C@]13C=C[C@H](OC)C[C@@H]1[N@](C2)C[C@H]3OC(C)=O`, the inhibition worked out at 4% against Acetylcholinesterase [4] and 28% against Cholinesterase [5].
With `CCCCC(=O)O[C@@H]1C[N@@]2Cc3c(cc4c(c3OC)OCO4)[C@@]13C=C[C@H](OC)C[C@H]23`, the IC50 at Cholinesterase [1] and against Acetylcholinesterase [2] was more than 100 µM in each case. In addition, the values for the inhibition on Acetylcholinesterase [4] and against Cholinesterase [5] were 7% and 39%, respectively.
For the compound `CCOc1cc(OCC)cc(C(=O)O[C@@H]2C[N@@]3Cc4c(cc5c(c4OC)OCO5)[C@@]24C=C[C@H](OC)C[C@H]34)c1`, the 50% inhibitory concentration (IC50) at Cholinesterase [1] and at Acetylcholinesterase [2] was more than 100 µM in each case. In addition, the inhibition was found to be 30% against Acetylcholinesterase [4] and 42% against Cholinesterase [5].
Consider `COc1c2c(cc3c1OCO3)[C@]13C=C[C@H](OC)C[C@@H]1[N@](C2)C[C@H]3O`, for which the IC50 against Cholinesterase [1] and at Acetylcholinesterase [2] was more than 100 µM in each case. The inhibition on Acetylcholinesterase [4] worked out at 4%; against Cholinesterase [5] it was 8%.
As to `COc1c2c(cc3c1OCO3)[C@]13C=C[C@H](OC)C[C@@H]1N(C2)C[C@H]3OC(=O)c1ccc2ccccc2c1`, the figures for the IC50 against Cholinesterase [1] and on Acetylcholinesterase [2] were 14 µM and more than 100 µM, respectively.
On Cholinesterase [6], `C[C@@H]([C@H]1[C@H](O)C[C@@]2(C)[C@@H]3CC[C@H]4C(C)(C)C(=O)C=C[C@@]45C[C@@]35CC[C@]12C)N(C)C` had an IC50 of 1.1 µM.
As to `COc1c2c(cc3c1OCO3)[C@]13C=C[C@H](OC)C[C@@H]1[N@](C2)C[C@H]3OC(=O)c1ccccc1[N+](=O)[O-]`, the inhibition on Acetylcholinesterase [4] is 75%; on Cholinesterase [5] it was 97%. Also, in the data set filed under Homo sapiens, the Ratio IC50 turned out to be 23.
